Assay results from patent publication US20250288647A1, “ANGIOGENESIS INHIBITING PEPTIDE AND USE THEREOF” (SEOUL NATIONAL UNIVERSITY HOSPITAL, priority 2021, published 2025).
Blank lines part the entries; values can stand above or below the molecule they belong to.

Columns and labels:
VEGF receptor [1] = assay: Real-time degree of binding using BLtz instrument (ForteBio); conditions: FIGS. 2A to 2I
Description: (§1) FIG. 2 is a view showing the results of confirming the degree of binding of the peptides using BLtz system according to an exemplary embodiment of the present invention to a VEGF receptor and a PDGF receptor. FIG. 2A is a view showing the results of Peptides 1 to 3, FIG. 2B is a view showing the results of Peptide 8, FIG. 2C is a view showing the results of Peptide 9, FIG. 2D is a view showing the results of Peptide 10, FIG. 2E is a view showing the results of Peptide 11, FIG. 2F is a view showing the results of Peptide 12, FIG. 2G is a view showing the results of Peptide 13, FIG. 2H is a view showing the results of Peptide 14, and FIG. 2I is a view showing the results of Peptide 15.
(§2) In addition, the degree of binding between the peptides and the receptors was confirmed in real time using a BLtz instrument (ForteBio).

PDGF receptor [2] = assay: as above; conditions: FIGS. 2A to 2I
Description: as §1, §2

VEGF receptor [3] = assay: Surface plasmon resonance (SPR) binding test, Biacore T200; conditions: VEGF receptor 200 ng/mL, CM5 chip
Procedure: (§3) It was confirmed that the prepared peptides have binding affinity to VEGF receptors and PDGF receptors using surface plasmon resonance (SPR). More specifically, SPR was performed using a Biacore T200 (GE Healthcare) device and a CM5 chip (GE Healthcare, Cat #. BR-1005-30), and the obtained results were analyzed using BIAevaluation software version 3.0 (GE Healthcare). For a binding test, a concentration of 200 ng/mL was used for the VEGF receptor and a concentration of 400 ng/ml was used for the PDGF receptor.

PDGF receptor [4] = assay: as above; conditions: PDGF receptor 400 ng/ml, CM5 chip
Procedure: as §3

[5] = test system: mice with oxygen-induced retinopathy; assay: Oxygen-induced retinopathy mice, intravitreal injection, isolectin staining, area of neovascular tufts; assay type: in vivo; conditions: 1 μL intravitreal, right eye, 5 days after injection, FIGS. 5 and 6
Procedure: Two days later, for the prepared mice with retinopathy, 1 μL of phosphate buffer solution, Peptide 1, Peptide 4, and KAI1 protein (CD82), which is known to bind to VEGF and PDGF, were intravitreally injected to the right eye of each of the mice, respectively. Mice were euthanized 5 days after injection and enucleated eyes were prepared. The prepared enucleated eye was immunostained using 5 μg/mL Alexa Fluor 594 isolectin GS-IB4 conjugate (Invitrogen), and then observed using a fluorescence microscope. Thereafter, the area of neovascular tufts was quantified as a percentage of the total retina using Image J (NIH).

CD31 = CD31 staining of cancer tissue sections (angiogenesis in cancer tissue); assay type: in vivo, NSG mice; conditions: tissue sections of cancer tissue obtained at 14 days, FIG. 4
Procedure: (§4) As a control, an equal amount of phosphate buffered saline (PBS) was mixed with Matrigel and injected. After the mice were euthanized 14 days later, cancer tissue was obtained and the size of cancer was measured. All animal handling and procedures were performed in accordance with research protocols approved by the Animal Care and Use Committee of Seoul National University Hospital. Thereafter, in all experiments, statistical significance between two groups was confirmed by a Student's t-test, and when P<0.05, it was determined to be statistically significant. Then, the obtained cancer tissue was fixed using a 4% paraformaldehyde solution, embedded using paraffin, and then cut to a thickness of […] to prepare a tissue section. The prepared tissue section was then stained using a CD31 antibody (Abcam) that specifically binds to CD31, a blood vessel-specific gene, and DAPI.

[6] = test system: MDA-MB-231 breast cancer cell line; assay: Anticancer effect: MDA-MB-231 cells mixed with peptide and Matrigel injected subcutaneously, size of cancer; assay type: in vivo, NSG mice; conditions: 14 days after subcutaneous injection with 2×10^6 MDA-MB-231 cells and Matrigel, compared to PBS control, FIG. 3
Procedure: as §4

- degree of binding to the VEGF receptor (BLtz) (VEGF receptor [1]): stably bound
- degree of binding to the PDGF receptor (BLtz) (PDGF receptor [2]): stably bound
- binding to the VEGF receptor (SPR) (VEGF receptor [3]): bound strongly
- binding to the PDGF receptor (SPR) (PDGF receptor [4]): bound strongly
Molecule: NHPEDWPVYQEGC [Peptide 15]

- degree of binding to the VEGF receptor (BLtz) (VEGF receptor [1]): stably bound
- degree of binding to the PDGF receptor (BLtz) (PDGF receptor [2]): stably bound
- binding to the VEGF receptor (SPR) (VEGF receptor [3]): bound strongly
- binding to the PDGF receptor (SPR) (PDGF receptor [4]): bound strongly
Molecule: SFYNWTDNAELMN [Peptide 9]

More lines, now with the values behind:

Molecule: NRPEVTAPASCEVKGAAANS [Peptide 4]
- angiogenesis inhibitory effect in retinopathy (area of neovascular tufts as percentage of total retina) [5]: did not show an angiogenesis inhibitory effect
- CD31 antibody staining (fluorescence intensity) in cancer tissue (CD31): remarkably high
- size of cancer [6]: size of cancer was remarkably increased

Molecule: NRPEVTAPASCEVKGEEDNS [Peptide 2]
- degree of binding to the VEGF receptor (BLtz) (VEGF receptor [1]): weak binding affinity
- degree of binding to the PDGF receptor (BLtz) (PDGF receptor [2]): weak binding affinity
- binding to the VEGF receptor (SPR) (VEGF receptor [3]): bound weakly
- binding to the PDGF receptor (SPR) (PDGF receptor [4]): bound weakly

Molecule: NRPEVTYPCSCEVKGAAANS [Peptide 3]
- degree of binding to the VEGF receptor (BLtz) (VEGF receptor [1]): weak binding affinity
- degree of binding to the PDGF receptor (BLtz) (PDGF receptor [2]): weak binding affinity

Molecule: NRPEVTYPCSCEVKGEEDNS [Peptide 1]
- degree of binding to the VEGF receptor (BLtz) (VEGF receptor [1]): highest binding affinity
- degree of binding to the PDGF receptor (BLtz) (PDGF receptor [2]): highest binding affinity
- angiogenesis inhibitory effect in retinopathy (area of neovascular tufts as percentage of total retina) [5]: angiogenesis inhibitory effect similar to that of the comparative group administered the KAI1 protein
- CD31 antibody staining (fluorescence intensity) in cancer tissue (CD31): almost no portion stained with a CD31 antibody
- binding to the VEGF receptor (SPR) (VEGF receptor [3]): bound strongly
- binding to the PDGF receptor (SPR) (PDGF receptor [4]): bound strongly
- size of cancer [6]: size of cancer was inhibited compared to the control

B1: KAI1 protein: KAI1 protein (CD82), which is known to bind to VEGF and PDGF; comparative group (protein, UniProt P27701 1-267, looked up)
CD82 antigen: MGSACIKVTKYFLFLFNLIFFILGAVILGFGVWILADKSSFISVLQTSSSSLRMGAYVFIGVGAVTMLMGFLGCIGAVNEVRCLLGLYFAFLLLILIAQVTAGALFYFNMGKLKQEMGGIVTELIRDYNSSREDSLQDAWDYVQAQVKCCGWVSFYNWTDNAELMNRPEVTYPCSCEVKGEEDNSLSVRKGFCEAPGNRTQSGNHPEDWPVYQEGCMEKVQAWLQENLGIILGVGVGVAIIELLGMVLSICLCRHVHSEDYSKVPKY
- angiogenesis inhibitory effect in retinopathy (area of neovascular tufts as percentage of total retina) [5]: angiogenesis inhibitory effect
